Data on 6 compounds can be found in patent publication US6599913B1, “Treating allergic and inflammatory conditions” (Schering Corporation, priority 2001, dated 2003).

The nature of test [1]: Treatment of chronic idiopathic urticaria. The note with it: oral administration.
Test [2] is described as follows: Double-blinded randomized clinical trials in seasonal allergic rhinitis.
Protocol: Efficacy endpoints in all the studies were Total Symptom Score, Total Nasal Symptom Score, Total Non-nasal Symptom Score, and Health Quality of Life (HQOL) analysis in efficacy trials. […] This parameter measures the total symptom relief by the patient after 24 hours before taking the next day dose.
The target in test [3] is P-gp (UniProt P21448). The note with it: ATP hydrolysis. How it is done:
The invention will be further described by reference to the following study.
A direct functional assay was performed with […] as described previously. Ibid. The consumption of ATP was determined by the liberated inorganic orthophosphate, which forms a color complex with molybdate.
If a compound is a substrate of P-gp the hydrolysis of ATP is required as the driving force. As ATP is consumed at a purported rate of about one or two per transport event, the hydrolysis of ATP represents transport rate or activity assay of function. […] Any change in the rate of ATP hydrolysis represents the sum of the basal activity and the contribution of the exogenous substrate to ATP hydrolysis.

The target of test [4] is T1, rat OATP1 (Rattus norvegicus, UniProt P46720).
T1 sequence (P46720 1-670): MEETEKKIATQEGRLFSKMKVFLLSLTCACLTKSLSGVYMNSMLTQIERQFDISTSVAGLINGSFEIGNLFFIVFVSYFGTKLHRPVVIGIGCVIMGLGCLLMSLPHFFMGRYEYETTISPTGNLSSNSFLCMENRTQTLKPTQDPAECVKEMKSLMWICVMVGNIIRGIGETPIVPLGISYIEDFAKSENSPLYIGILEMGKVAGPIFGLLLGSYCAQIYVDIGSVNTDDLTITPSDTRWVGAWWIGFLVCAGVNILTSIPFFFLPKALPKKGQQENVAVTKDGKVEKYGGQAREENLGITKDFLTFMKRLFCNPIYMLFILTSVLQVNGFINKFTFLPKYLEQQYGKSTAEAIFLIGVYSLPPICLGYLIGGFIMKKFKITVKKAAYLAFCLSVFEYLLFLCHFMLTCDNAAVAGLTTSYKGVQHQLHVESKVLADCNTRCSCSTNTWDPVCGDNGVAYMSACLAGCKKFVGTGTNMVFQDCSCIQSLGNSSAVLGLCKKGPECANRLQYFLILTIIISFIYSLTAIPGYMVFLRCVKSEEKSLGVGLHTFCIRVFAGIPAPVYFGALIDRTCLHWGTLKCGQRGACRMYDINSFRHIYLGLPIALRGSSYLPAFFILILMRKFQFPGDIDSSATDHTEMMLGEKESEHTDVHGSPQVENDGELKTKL
The note with it: cited from earlier work.

Test [5] addresses T2, human OATP (Homo sapiens, UniProt P46721).
T2 sequence (P46721 1-670): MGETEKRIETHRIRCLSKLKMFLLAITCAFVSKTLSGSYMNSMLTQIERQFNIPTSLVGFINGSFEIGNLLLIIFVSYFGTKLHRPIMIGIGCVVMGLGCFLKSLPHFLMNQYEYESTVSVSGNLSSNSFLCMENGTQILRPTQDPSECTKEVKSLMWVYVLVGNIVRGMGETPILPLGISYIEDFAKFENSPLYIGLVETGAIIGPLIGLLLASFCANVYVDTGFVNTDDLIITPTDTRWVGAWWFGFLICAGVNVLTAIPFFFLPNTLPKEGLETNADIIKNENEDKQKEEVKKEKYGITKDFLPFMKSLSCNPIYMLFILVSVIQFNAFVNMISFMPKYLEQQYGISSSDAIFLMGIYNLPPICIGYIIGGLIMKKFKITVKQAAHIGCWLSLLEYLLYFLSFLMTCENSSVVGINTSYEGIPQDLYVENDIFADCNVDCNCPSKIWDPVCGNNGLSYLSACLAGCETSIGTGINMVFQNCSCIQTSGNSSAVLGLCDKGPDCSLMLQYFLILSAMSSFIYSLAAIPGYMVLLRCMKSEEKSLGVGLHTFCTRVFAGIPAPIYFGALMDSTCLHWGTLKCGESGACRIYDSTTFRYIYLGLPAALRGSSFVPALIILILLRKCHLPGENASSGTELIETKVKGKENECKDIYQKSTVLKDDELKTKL
Conditions: cited from earlier work.

In test [6] the target is T3, human OATP1 (Homo sapiens, UniProt P46721).
T3 sequence (P46721 1-670): T2 sequence (P46721 1-670)
The note with it: at 10 μM; cited from earlier work.

As for `Clc1ccc2c(c1)CCc1cccnc1C2=C1CCNCC1` [desloratadine], in test [1], the “Severity of pruritis, number of hives, size of largest hive, total symptom score” value is reported as “significantly reduced”. Besides, the “Reduction of nasal symptoms versus placebo” value in test [2] (5 mg) is given as “significantly (p<0.01) more effective than placebo”. For the same compound, in test [2] (5 mg once daily), the Total symptom scores result is listed as “significantly reduced”. Also, the “AM NOW total symptom score” value in test [2] (full 24 hour dosing interval, 5 mg to 20 mg) is “Statistically significant (p<0.05) reductions”.

In the case of `CCOC(=O)N1CCC(=C2c3ccc(Cl)cc3CCc3cccnc32)CC1` [loratadine], the “Vmax above basal activity” value in test [3] (FIG. 3) is given as “≈ 200%”. The “Vmax as % of basal (control) activity” value in test [3] (without H33342) is given as “about 200%”.

In the case of `CC[C@H](C)C(=O)O[C@H]1C[C@@H](C)C=C2C=C[C@H](C)[C@H](CC[C@@H]3C[C@@H](O)CC(=O)O3)[C@H]21` [lovastatin], the “Inhibition of rat OATP1” value in test [4] (at 50 μM) is listed as “effectively inhibit”. Besides, in test [5], the “Inhibition of fexofenadine uptake” value is “significant inhibition”. For the same compound, the “Inhibition of human OATP1” value in test [6] is given as “effectively inhibits”.

Take `CC(C)c1nc(CN(C)C(=O)N[C@H](C(=O)N[C@@H](Cc2ccccc2)C[C@H](O)[C@H](Cc2ccccc2)NC(=O)OCc2cncs2)C(C)C)cs1` [ritonavir]: in test [5], the “Inhibition of fexofenadine uptake” value is reported as “significant inhibition”. Besides, the “Inhibition of human OATP1” value in test [6] is “effectively inhibit”.

As for `CC(C)(C)NC(=O)[C@@H]1C[C@@H]2CCCC[C@@H]2CN1C[C@@H](O)[C@H](Cc1ccccc1)NC(=O)[C@H](CC(N)=O)NC(=O)c1ccc2ccccc2n1` [saquinavir], the “Inhibition of fexofenadine uptake” value in test [5] is given as “significant inhibition”. Further, the “Inhibition of human OATP1” value in test [6] is on record as “effectively inhibit”.

As for APD-ajmalinium, the “Transport by rat OATP” value in test [4] is recorded as “transports”.
